Read-outs that look alike come from different tables or passages of the source.
Assays:
[1] = tested on: extensor digitorum longus muscle; settings: after three weeks
Method: In addition, a 0.5% MC solution or physiological saline was orally administered to a control group.
Then, the concentration of a muscle toxicity-associated enzyme, such as creatine kinase (CK) and lactate dehydrogenase (LDH) in blood was measured and a histological analysis was performed.
The rats were anesthetized with ether after three weeks of starting the administration for each experimental group; an extensor digitorum longus muscle was removed; fixed in paraffin; and then made into 5 μm coronal sections. The paraffin was removed with xylene, hydrophilicized with alcohol, and then stained with hematoxylin and eosin to observe the tissue through an optical microscope (Olympus Optical, Co., Japan).

[2] = Frequency of muscular side effects according to dosage (Zocor Tablet Label); assay type: in vivo; settings: dosage of 80 mg compared to 20 mg
Source text: In addition, it is reported that the side effects are increased when the concentration of the statin-based drug in blood is increased in the most cases. […] 16, 2011].

[3] = after oral administration; cited from earlier work

CC(C)c1c(C(=O)Nc2ccccc2)c(-c2ccccc2)c(-c2ccc(F)cc2)n1CC[C@@H](O)C[C@@H](O)CC(=O)O [Atorvastatin, atorvastatin]
Degree of Muscle Tissue Damage, Scores (0: Normal, +1: internal nuclei, +2: Myositis, +3: internal nuclei + myositis) ([1]; 40 mg/kg atorvastatin alone): 1.0 ± 0.0
Degree of Muscle Tissue Damage, Scores (0: Normal, +1: internal nuclei, +2: Myositis, +3: internal nuclei + myositis) ([1]; 80 mg/kg atorvastatin alone): 1.8 ± 0.2

CCC(C)(C)C(=O)O[C@H]1C[C@@H](C)C=C2C=C[C@H](C)[C@H](CC[C@@H]3C[C@@H](O)CC(=O)O3)[C@H]21 [simvastatin]
Increase in frequency of muscular side effects, 80 mg compared to 20 mg [2]: at least 20 times

CCCCc1nc(Cl)c(CO)n1Cc1ccc(-c2ccccc2-c2nn[nH]n2)cc1 [Losartan, 2-butyl-4 chloro-1-[2-(1H-tetrazol-5-yl)biphenyl-4-ylphenyl]-1H-imidazol-5-methanol]
Time to maximum concentration in the blood (losartan molecules) [3]: within one hour

Reference: patent US20130158084A1, “Pharmaceutical Composition Comprising Losartin For Treating or Preventing Statin BasedGrug-Induced Muscle Toxicity” (HANALL BIOPHARMA CO., LTD., priority 2011, published 2013)
